{
  "source": "patent US8227610B2",
  "about": "“Compositions and methods for producing cellular labels for nuclear magnetic resonance techniques” (Carnegie Mellon University, priority 2007, dated 2012)",
  "key": {"[1]": {"assay": "Critical micelle concentration estimated from light scattering intensity and particle size", "assay_type": "physicochemical", "design": "critical micell concentration (CMC): unit not given here", "procedure": "FIG. 1. PFPE amide 1 emulsified with Pluronic™ F68 by sonication in 1×HBSS buffer. Emulsion was diluted in 1×HBSS and particle size measured by Dynamic Light Scattering (DLS). Data represents average of two independent measurements, (mean±SD). Critical micelle concentration (CMC) of PFPE amide 1 is 22.2 mg/mL, in presence of 21.6 mol % F68 and 1×HBSS buffer, was estimated from the intersection of the graph of two curves. Measurements performed on Zetasizer Nano (Malvern, UK).\nPluronic™ F68 was dissolved in aqueous buffer (HBSS, Hyclone) at 150 mg/mL. PFPE amide 1 was added at 152 mg/mL, and the mixture (250 μL) was placed in an 1.5 mL Eppendorf vial and sonicated (at 20 W and 20 kHz) at room temperature for 30 seconds. The emulsion was then diluted 1:3 in 1×HBSS and the particle size was measured by dynamic light scattering in Malvern Zetasizer Nano within 1 h. The molar ratio of PFPE amide 1 to F68 was 4.6:1. The polydispersity (PDI) was 0.12 to 0.19 and the average particle size 200 nm. The critical micellar concentrations (CMC) for the PFPE amide 1 and F68 was estimated by plotting the light scattering intensity and average diameter and looking for the curve intersection, as shown in FIG. 1."}, "[2]": {"test_system": "dendritic cells", "assay": "PFPE uptake in dendritic cells measured by 19F NMR", "assay_type": "cell-based, mouse", "details": "3 h incubation", "procedure": "(§1) Labeling mouse dendritic cells was performed according to published methods with minor modifications^35. Dendritic cells were plated in 6-well plates, 1−2×10^6/well, and allowed to attach overnight. A PFPE diethyl amide 1/L35 emulsion was mixed with 0.3 mL of serum free media, incubated for 30 min at room temperature, and then added to the cells. After a 3 h incubation at 37° C., the cell labeling medium was removed and cells were washed three times with 1×PBS, detached by trypsinization, washed, and resuspended in 0.5 mL of complete media containing 10% FBS. A portion of the cell suspension (1/10) was used for cell number estimates by Cell Titer Glo. The cells were pelleted\\ and resuspended in 0.1 mL of media for ^19F NMR measurements to assess the cell loading.\nWhen dendritic cells were used, the cell suspension (0.1 mL) was mixed with 100 ul of 1% TFA solution in glycerol as a calibrated ^19F reference. The two solutions were mixed well and transferred into a 5 mm NMR tube. Cell uptake was calculated from the relative areas under the peak at −91.5 ppm (PFPE main peak) and the TFA internal standard peak at −76 ppm. Cellular uptake (i.e., the parameter Fc) was calculated as the mean number of fluorine atoms per single viable cell."}, "[3]": {"test_system": "dendritic cells", "assay": "Cell number and viability of labeled dendritic cells by Cell Titer Glo", "assay_type": "cell-based, mouse", "details": "after labeling", "procedure": "In the examples given below, cellular number was estimated using the commercial assay Cell Titer Glo (Promega). The assay implementation is easy and highly reproducible. A correlation curve was constructed for each labeling experiment at the day of experiment using the same cell culture. When testing the viability post-labeling, a small sample (50 μL) was taken from labeled cell suspension and mixed with Cell Titer Glo reagent in triplicate. Luminescence was measured within 10 minutes and the viable cell number was estimated from a linear correlation curve prepared on the day of experiment.\nas §1"}},
  "data": [
    {"substance": "Perfluoropolyether diethyl amide [PFPE amide 1]", "values": [
      {"measurement": "critical micelle concentration (CMC)", "setting": "[1]; 1×HBSS", "result": 22.2, "unit": "mg/mL"}
    ]},
    {"substance": "Perfluoropolyether tyramide [PFPE tyramide 6]", "values": [
      {"measurement": "critical micell concentration (CMC)", "setting": "[1]; PFPE-tyramide 6/F68 24:1, thin film method, water", "result": 4.5},
      {"measurement": "uptake in DCs by 19F NMR (in words)", "setting": "[2]", "result": "comparable to the cell labeling experiments that were facilitated with protamine sulfate"},
      {"measurement": "cell viability / toxicity in DCs (in words)", "setting": "[3]", "result": "non-toxic over various doses"}
    ]}
  ]
}
